Results as given in US10993950B2, “Medical device for the treatment of HPV cutaneous infections” (Poli MD S.R.L., priority 2017, dated 2021).

Tested on: SkinEthic RHE/S/17 reconstituted human epidermis
Assay: TEM ultrastructure of artificial constructs of human skin (SkinEthic) after treatment with ASA compositions
Format: cell-based
Protocol: Experiments Comparing Different ASA-Containing Compositions on the Ultrastructure of Artificial Constructs of Human Skin (SkinEthic)
Artificial Constructs of Human Skin
SkinEthic™ RHE/S/17 reconstituted human epidermis samples were used. This is an in vitro reconstituted human epidermis from normal human keratinocytes grown on a polycarbonate filter at the air-liquid interface.
The tissue samples were removed from the protective agarose and incubated in a multiwell with 6 wells with 1 ml of maintenance medium per well.
After about 14 hours of incubation with the described-above compositions, the epidermis inserts were cut and fixed in 500 microliters of fixative (glutaraldehyde 2.5%, paraformaldehyde 2% in cacodylate buffer 0.1 M at pH 7.4) for 2 hours at room temperature.
After trimming small rectangles of fabric, the samples were included in an epoxy resin. Ultra-thin slices were obtained and placed on copper screens, then stained with uranyl acetate and lead citrate.

overall appearance of the basal, spinous and granular layers (TEM): preserved and similar to the control
Compound: CC(O)CO (stereo not drawn) [Composition 3, propylene glycol]
N. of corneocyte layers left after treatment (about 14 hours of incubation, TEM, not-treated control >25): 19-20
efficacy as judged from corneocyte layers left (verbal rating of Table 1 data): poor efficacy
